Measurements taken from patent publication US20230295113A1, “NLRP3 MODULATORS” (ZOMAGEN BIOSCIENCES LTD, priority 2022, published 2023).

The molecules below were run on IL-1b (assay: Human Monocyte IL-1b Assay). Details: Homo sapiens, Monocyte, fresh human whole blood; compound 0.5 h, 100 ng/mL LPS 3.5 h at 37° C., 5 mM ATP 45 min; IL-1b in supernatant by ELISA.
Type: cell-based
Method: Example 46: Human Monocyte IL-1b Assay
Serially diluted testing compounds were incubated with […] of fresh human whole blood for 0.5 hours. Cells were primed with 100 ng/mL lipopolysaccharide (LPS) for 3.5 hours at 37° C. followed by stimulation with 5 mM ATP for an additional 45 minutes. The concentration of IL-1b concentration in the supernatant was determined with commercially available ELISA kits. Negative controls are wells without stimulation, while positive controls are wells with stimulation but only DMSO without compounds added. After background subtraction, compound treatment wells were then normalized to the positive controls for IC50 calculations.

| Structure (SMILES) | IC50 |
| --- | --- |
| CN1CCCC(C(O)c2nnc(-c3ccc(C(F)(F)F)cc3O)c3ccccc23)C1 (stereo not drawn) [Compound 9, 2-(4-(hydroxy(1-methylpiperidin-3-yl)methyl)phthalazin-1-yl)-5-(trifluoromethyl)phenol] | < 500 nM |
| CC(c1nnc(-c2ccc(C(F)(F)F)cc2O)c2ccccc12)C1CCCNC1 (stereo not drawn) [Compound 22, 2-(4-(1-(piperidin-3-yl)ethyl)phthalazin-1-yl)-5-(trifluoromethyl)phenol] | < 500 nM |
| COc1cc(C(F)(F)F)ccc1-c1nnc(C(O)C2CN(C)C2)cc1C (stereo not drawn) [Compound 30, (6-(2-methoxy-4-(trifluoromethyl)phenyl)-5-methylpyridazin-3-yl)(1-methylazetidin-3-yl)methanol] | 3000 to 10000 nM |
| CN1CCC(=O)C(C(O)c2ccc(-c3ccc(C(F)(F)F)cc3O)nn2)C1 (stereo not drawn) [Compound 23, 3-(hydroxy(6-(2-hydroxy-4-(trifluoromethyl)phenyl)pyridazin-3-yl)methyl)-1-methylpiperidin-4-one] | 3000 to 10000 nM |
| Cc1cc(C(F)(F)F)cc(O)c1-c1ccc(C(O)C2CCCN(C)C2)nn1 (stereo not drawn) [Compound 20, 2-(6-(hydroxy(1-methylpiperidin-3-yl)methyl)pyridazin-3-yl)-3-methyl-5-(trifluoromethyl)phenol] | < 500 nM |
| Cc1cc(C(=NO)C2CCCN(C)C2)nnc1-c1ccc(C(F)(F)F)cc1O (stereo not drawn) [Compound 16, (6-(2-hydroxy-4-(trifluoromethyl)phenyl)-5-methylpyridazin-3-yl)(1-methylpiperidin-3-yl)methanone oxime] | < 500 nM |
| Cc1c(CC2CCCN(C)C2)nnc(-c2ccc(C(F)(F)F)cc2O)c1C (stereo not drawn) [Compound 5, 2-(4,5-dimethyl-6-((1-methylpiperidin-3-yl)methyl)pyridazin-3-yl)-5-(trifluoromethyl)phenol] | < 500 nM |
| Cc1cc([C@H](O)[C@@H]2CCCN(C3CC3)C2)nnc1-c1ccc(C(F)(F)F)cc1O [Compound 25, 2-(6-((R)-((R)-1-cyclopropylpiperidin-3-yl)(hydroxy)methyl)-4-methylpyridazin-3-yl)-5-(trifluoromethyl)phenol] | < 500 nM |
| Cc1cc(C(=O)C2CCCN(C)C2)nnc1-c1ccc(C(F)(F)F)cc1O (stereo not drawn) [Compound 14, (6-(2-hydroxy-4-(trifluoromethyl)phenyl)-5-methylpyridazin-3-yl)(1-methylpiperidin-3-yl)methanone] | < 500 nM |
| COC(c1nnc(-c2ccc(C(F)(F)F)cc2O)c(C)c1C)C1CCCN(C)C1 (stereo not drawn) [Compound 6, 2-(6-(methoxy(1-methylpiperidin-3-yl)methyl)-4,5-dimethylpyridazin-3-yl)-5-(trifluoromethyl)phenol] | 500 to 3000 nM |
| Cc1cc([C@@H](O)[C@@H]2CCCN(C)C2)nnc1-c1ccc(C(F)(F)F)cc1O [Compound 17A, 2-(6-((S)-hydroxy((R)-1-methylpiperidin-3-yl)methyl)-4-methylpyridazin-3-yl)-5-(trifluoromethyl)phenol] | < 500 nM |
| Cc1c(-c2ccc(C(F)(F)F)cc2O)nnc(C(C)(O)C2CCCN(C)C2)c1C (stereo not drawn) [Compound 3, 2-(6-(1-hydroxy-1-(1-methylpiperidin-3-yl)ethyl)-4,5-dimethylpyridazin-3-yl)-5-(trifluoromethyl)phenol] | < 500 nM |
| Cc1c(-c2ccc(C(F)(F)F)cc2O)nnc(C(F)c2cccnc2)c1C (stereo not drawn) [Compound 4, 2-(6-(fluoro(pyridin-3-yl)methyl)-4,5-dimethylpyridazin-3-yl)-5-(trifluoromethyl)phenol] | 3000 to 10000 nM |
| Cc1cc(C)c(-c2ccc(C(O)C3CCCN(C)C3)nn2)c(O)c1 (stereo not drawn) [Compound 19, 2-(6-(hydroxy(1-methylpiperidin-3-yl)methyl)pyridazin-3-yl)-3,5-dimethylphenol] | < 500 nM |
| Cc1cc(C(O)[C@@H]2CCCN(C)C2)nnc1-c1cc(F)c(C(F)(F)F)cc1O (stereo partly drawn) [Compound 42, 4-fluoro-2-(6-(hydroxy((R)-1-methylpiperidin-3-yl)methyl)-4-methylpyridazin-3-yl)-5-(trifluoromethyl)phenol] | < 500 nM |
| Cc1cc(O)c(-c2ccc(CC3CCCN(C)C3)nn2)c(F)c1 (stereo not drawn) [Compound 7, 3-fluoro-5-methyl-2-(6-((1-methylpiperidin-3-yl)methyl)pyridazin-3-yl)phenol] | < 500 nM |
| Oc1cc(C(F)(F)F)ccc1-c1ccc(CC2(O)CCCNC2)nn1 (stereo not drawn) [Compound 21, 3-((6-(2-hydroxy-4-(trifluoromethyl)phenyl)pyridazin-3-yl)methyl)piperidin-3-ol] | 3000 to 10000 nM |
| Cc1cc(C(O)C2CCCCN2C)nnc1-c1ccc(C(F)(F)F)cc1O (stereo not drawn) [Compound 39, 2-(6-(hydroxy(1-methylpiperidin-2-yl)methyl)-4-methylpyridazin-3-yl)-5-(trifluoromethyl)phenol] | < 500 nM |
| COc1cc(C(F)(F)F)ccc1-c1nnc([C@H](O)[C@@H]2CCCN(C)C2)cc1C [Compound 24, (R)-(6-(2-methoxy-4-(trifluoromethyl)phenyl)-5-methylpyridazin-3-yl)((R)-1-methylpiperidin-3-yl)methanol] | < 500 nM |
| Cc1c(C(=O)C2CCCN(C)C2)nnc(-c2ccc(C(F)(F)F)cc2O)c1C (stereo not drawn) [Compound 2, (6-(2-hydroxy-4-(trifluoromethyl)phenyl)-4,5-dimethylpyridazin-3-yl)(1-methylpiperidin-3-yl)methanone] | 500 to 3000 nM |
| Cc1cc([C@@H](O)[C@H]2CCCN(C)C2)nnc1-c1ccc(C(F)(F)F)cc1O [Compound 17D, 2-(6-((S)-hydroxy((S)-1-methylpiperidin-3-yl)methyl)-4-methylpyridazin-3-yl)-5-(trifluoromethyl)phenol] | 500 to 3000 nM |
| [2H][C@@](O)(c1cc(C)c(-c2ccc(C(F)(F)F)cc2O)nn1)[C@@H]1CCCN(C)C1 [Compound 18, 2-(6-((S)-hydroxy((R)-1-methylpiperidin-3-yl)methyl-d)-4-methylpyridazin-3-yl)-5-(trifluoromethyl)phenol] | < 500 nM |
| Cc1cc([C@@H](O)[C@]2(C)CCCN(C)C2)nnc1-c1ccc(C(F)(F)F)cc1O [Compound 27B, 2-(6-((S)-((R)-1,3-dimethylpiperidin-3-yl)(hydroxy)methyl)-4-methylpyridazin-3-yl)-5-(trifluoromethyl)phenol] | 3000 to 10000 nM |
| Cc1cc(C(C)(O)C2CCCN(C)C2)nnc1-c1ccc(C(F)(F)F)cc1O (stereo not drawn) [Compound 15, 2-(6-(1-hydroxy-1-(1-methylpiperidin-3-yl)ethyl)-4-methylpyridazin-3-yl)-5-(trifluoromethyl)phenol] | < 500 nM |

Same assay, conditions: Monocyte; fresh human whole blood; compound 0.5 h, 100 ng/mL LPS 3.5 h at 37° C., 5 mM ATP 45 min; IL-1b in supernatant by ELISA

| Structure (SMILES) | IC50 |
| --- | --- |
| Cc1cc(C(O)C2CC3CC2N(C)C3)nnc1-c1ccc(C(F)(F)F)cc1O (stereo not drawn) [Compound 36, 2-(6-(hydroxy(2-methyl-2-azabicyclo[2.2.1]heptan-6-yl)methyl)-4-methylpyridazin-3-yl)-5-(trifluoromethyl)phenol] | < 500 nM |
| Cc1cc(C(O)C2CCCCN(C)C2)nnc1-c1ccc(C(F)(F)F)cc1O (stereo not drawn) [Compound 32, 2-(6-(hydroxy(1-methylazepan-3-yl)methyl)-4-methylpyridazin-3-yl)-5-(trifluoromethyl)phenol] | < 500 nM |

Same assay, conditions: fresh human whole blood; compound 0.5 h, 100 ng/mL LPS 3.5 h at 37° C., 5 mM ATP 45 min; IL-1b in supernatant by ELISA

| Structure (SMILES) | IC50 |
| --- | --- |
| CN1CCC[C@@H]([C@@H](O)c2nnc(-c3ccc(C(F)(F)F)cc3O)c3c2CCC3)C1 (racemic) [Compound 44, 2-(4-((R)-hydroxy((R)-1-methylpiperidin-3-yl)methyl)-6,7-dihydro-5H-cyclopenta[d]pyridazin-1-yl)-5-(trifluoromethyl)phenol] | < 500 nM |
